This passage reports p21 induction results from US20140199327A1, “METHODS OF PROMOTING DIFFERENTIATION” (Genentech, Inc., priority 2011, published 2014).

This assay concerns p21. The assay is described as follows: p21 and p53 expression in U2-OS cells. In kind it is cell-based, human. As to conditions: etoposide treatment. How it is done:
U2-OS, HOS, SJSA, SAOS, or MG-63 cells were grown to 10-25% confluence and transfected with the plasmids indicated in combination with the marker plasmid pMACS using FuGENE 6 (Sigma).
Transfected cells were sorted with MACS-select H-2K^k microbeads (Miltenyi Biotec). RNA was extracted from cultured or sorted transfected cells with Qiagen RNeasy Mini kits. Protein was extracted from sorted or cultured cells via lysis in NP-40 buffer (1% NP-40, 120 mM NaCl, 50 mM Tris, pH=7.4, 1 mM EDTA) supplemented with protease inhibitor cocktail I and phosphatase inhibitor cocktails 1 and 2 (Calbiochem). Lysates were clarified by centrifugation at 15,000×G for 10 minutes prior to analysis. Protein content was normalized by BCA protein assay (Thermo Scientific). For dual shRNA/siRNA experiments, cells were transfected with DNA expression vectors via Fugene and subsequently transfected with control siRNA (sense-5′-[…]-3′ (SEQ ID NO:20)) or siRNA targeting p21 (5′-[…]-3′ (SEQ ID NO:21)) via nucleofection with program X-001 in nucleofection solution V (Lonza). DT-40 cells were transfected by nucleofection with program B-023 in nucleofection solution T (Lonza).
Rat monoclonal antibodies were raised against the C-terminal 100 amino-acids of human USP1 or WDR48 to produce the monoclonal USP1 antibody 5E10 and WDR48 antibody 9F10. […]

As to `COc1cc([C@@H]2c3cc4c(cc3[C@@H](O[C@@H]3O[C@@H]5CO[C@@H](C)O[C@H]5[C@H](O)[C@H]3O)[C@H]3COC(=O)[C@H]23)OCO4)cc(OC)c1O` [etoposide], the p21 induction result is recorded as “induced”.
